Experimental data published in ChEMBL document CHEMBL3351769, “Poly-guanidinoethylphenylethers organised around a benzene ring: synthesis and evaluation of their antibacterial and cytotoxic properties” (Bioorg Med Chem Lett, 2014).

Tests used:
Escherichia coli = assay: Antimicrobial activity against Escherichia coli ATCC 25922 by broth microdilution method; type: functional
Pseudomonas aeruginosa = assay: Antimicrobial activity against Pseudomonas aeruginosa ATCC 27853 by broth microdilution method; type: functional
Staphylococcus aureus [1] = assay: Antimicrobial activity against Staphylococcus aureus ATCC 25923 by broth microdilution method; type: functional
Staphylococcus aureus [2] = assay: Antimicrobial activity against Staphylococcus aureus ATCC 29213 by broth microdilution method; type: functional
Enterococcus faecalis = assay: Antimicrobial activity against Enterococcus faecalis ATCC 29212 by broth microdilution method; type: functional
MRC5 [3] = assay: Cytotoxicity against human MRC5 cells after 24 hrs by MTT assay; type: cell-based; conditions: MRC5, 24 h
MRC5 [4] = assay: Cytotoxicity against human MRC5 cells after 48 hrs by MTT assay; type: cell-based; conditions: MRC5, 48 h
[5] = Selectivity index, ratio of IC50 for human MRC5 cells after 24 hrs to MIC for Escherichia coli ATCC 25922; type: toxicity, cell-based; conditions: read-out: Selectivity Index
[6] = Selectivity index, ratio of IC50 for human MRC5 cells after 24 hrs to MIC for Pseudomonas aeruginosa ATCC 27853; type: toxicity, cell-based; conditions: read-out: Selectivity Index
[7] = Selectivity index, ratio of IC50 for human MRC5 cells after 24 hrs to MIC for Staphylococcus aureus ATCC 25923; type: toxicity, cell-based; conditions: read-out: Selectivity Index
[8] = Selectivity index, ratio of IC50 for human MRC5 cells after 24 hrs to MIC for Staphylococcus aureus ATCC 29213; type: toxicity, cell-based; conditions: read-out: Selectivity Index
[9] = Selectivity index, ratio of IC50 for human MRC5 cells after 24 hrs to MIC for Enterococcus faecalis ATCC 29212; type: toxicity, cell-based; conditions: read-out: Selectivity Index

| SMILES | MIC (Escherichia coli) [µg/mL] | MIC (Pseudomonas aeruginosa) [µg/mL] | MIC (Staphylococcus aureus [1]) [µg/mL] | MIC (Staphylococcus aureus [2]) [µg/mL] | MIC (Enterococcus faecalis) [µg/mL] | IC50 (MRC5 [3]) [µg/mL] | IC50 (MRC5 [4]) [µg/mL] | selectivity ratio at 24 h [5] | selectivity ratio at 24 h [6] | selectivity ratio at 24 h [7] | selectivity ratio at 24 h [8] | selectivity ratio at 24 h [9] |
| --- | --- | --- | --- | --- | --- | --- | --- | --- | --- | --- | --- | --- |
| N=C(N)NCCc1ccc(OCc2ccccc2COc2ccc(CCNC(=N)N)cc2)cc1.O=C(O)C(F)(F)F | 8 | 16 | < 1 | < 1 | 8 | 100 | 41 | 12.5 | 6.2 | > 100 | > 100 | 12.5 |
| N=C(N)NCCc1ccc(OCc2cccc(COc3ccc(CCNC(=N)N)cc3)c2)cc1.O=C(O)C(F)(F)F | 16 | 32 | < 1 | 2 | 16 | 34.5 | 29.7 | 2 | 1 | > 34.5 | 17 | 2 |
| N=C(N)NCCc1ccc(OCc2c(COc3ccc(CCNC(=N)N)cc3)c(COc3ccc(CCNC(=N)N)cc3)c(COc3ccc(CCNC(=N)N)cc3)c(COc3ccc(CCNC(=N)N)cc3)c2COc2ccc(CCNC(=N)N)cc2)cc1.O=C(O)C(F)(F)F | 16 | 16 | 8 | 8 | 8 | 26 | 30 | 1.5 | 1.5 | 3 | 3 | 3 |
| N=C(N)NCCc1ccc(OCc2ccccc2)cc1.O=C(O)C(F)(F)F | 32 | 64 | 16 | 8 | 128 | 26 | 19 | 0.8 | 0.4 | 1.5 | 3 | 0.2 |
| N=C(N)NCCc1ccc(OCc2cc(COc3ccc(CCNC(=N)N)cc3)cc(COc3ccc(CCNC(=N)N)cc3)c2)cc1.O=C(O)C(F)(F)F | < 1 | 16 | < 1 | < 1 | 8 | 39.5 | 30 | > 39.5 | 2.5 | > 39.5 | > 39.5 | 5 |
| N=C(N)NCCc1ccc(OCc2cc(COc3ccc(CCNC(=N)N)cc3)c(COc3ccc(CCNC(=N)N)cc3)cc2COc2ccc(CCNC(=N)N)cc2)cc1.O=C(O)C(F)(F)F | 4 | 8 | 2 | < 1 | 4 | 49 | 38.5 | 12 | 6 | 24.5 | > 49 | 12.2 |
| N=C(N)NCCc1ccc(OCc2ccc(COc3ccc(CCNC(=N)N)cc3)cc2)cc1.O=C(O)C(F)(F)F | 4 | 4 | 1 | 1 | 2 | 21 | 12.7 | 5.25 | 5.25 | 21 | 21 | 10.5 |
